pIC50: −log10 of the molar value.
Assays:
[1] = test system: ECFC/ADSC co-culture cell nuclei number; conditions: for pIC50: read-out: VEGF_ADSC\ECFC Angio Hoechst NucArea summarized IC50
[2] = test system: endothelial tube formation in co-cultures of ECFCs and ADSCs treated with VEGF; assay: cells; assay type: cell-based, human; conditions: for pIC50: read-out: VEGF_ADSC\ECFC Angio CD31 TubeArea summarized IC50

Structure (SMILES) | VEGF_ADSC\ECFC Angio Hoechst NucArea IC50/EC50 [1] [µM] | VEGF_ADSC\ECFC Angio CD31 TubeArea IC50/EC50 [2] [µM] | further results
CCCOC(=O)c1cc(O)c(O)c(O)c1 [NCGC00164234-04] | – | – | pIC50 [1]: < 5.00; pIC50 [2]: < 5.00
OC[C@@H](O)[C@@H](O)[C@H](O)[C@@H](O)CO [NCGC00164353-05] | > 10 | > 10 | –
COc1cc(/C=C2\CCC/C(=C\c3ccc(O)c(OC)c3)C2=O)ccc1O [NCGC00164486-04] | – | – | pIC50 [1]: 5.16; pIC50 [2]: < 5.00
CCN(CC)C(=O)/C(C#N)=C/c1cc(O)c(O)c([N+](=O)[O-])c1 [NCGC00164555-03] | > 10 | > 10 | –
Cc1c(C(=O)NN2CCCCC2)nn(-c2ccc(Cl)cc2Cl)c1-c1ccc(Cl)cc1 [NCGC00164572-02] | – | – | IC50/EC50, VEGF_ADSC\ECFC Angio Hoechst NucArea (assay number 3) [1]: > 10 µM; IC50/EC50, VEGF_ADSC\ECFC Angio CD31 TubeArea (assay number 2) [2]: > 10 µM
CCCCCCCCCCC[C@@H](C[C@@H]1OC(=O)[C@H]1CCCCCC)OC(=O)[C@H](CC(C)C)NC=O [NCGC00165856-03] | > 10 | > 10 | –
S=C=Nc1ccc(N=C=S)cc1 [NCGC00166077-02] | – | – | IC50/EC50, VEGF_ADSC\ECFC Angio Hoechst NucArea (assay number 3) [1]: > 10 µM; IC50/EC50, VEGF_ADSC\ECFC Angio CD31 TubeArea (assay number 2) [2]: > 10 µM
O=C(Nc1ccc([N+](=O)[O-])cc1)Nc1ccc([N+](=O)[O-])cc1 [NCGC00166218-02] | – | – | pIC50 [1]: < 5.00; pIC50 [2]: < 5.00
O=[N+]([O-])c1cc(I)c(O)c(I)c1 [NCGC00166241-02] | – | – | pIC50 [1]: < 5.00; pIC50 [2]: < 5.00
CCCSS/C(CCO)=C(\C)N(C=O)Cc1cnc(C)nc1N [NCGC00167447-02] | > 10 | > 10 | –
C#C[C@]1(O)CC[C@H]2[C@@H]3CCC4=CCCC[C@@H]4[C@H]3C(=C)C[C@@]21CC [NCGC00167449-02] | 9.571 | > 10 | –
O=NN(CCCl)C(=O)NC1CCCCC1 [NCGC00167466-02] | > 10 | > 10 | –
COc1cccc(CCc2ccccc2OCC(CN(C)C)OC(=O)CCC(=O)O)c1.Cl (stereo not drawn) [NCGC00167489-03] | > 10 | > 10 | –
COC(=O)C1=C(C)NC(C)=C(C(=O)OC(C)(C)CN(C)CCC(c2ccccc2)c2ccccc2)C1c1cccc([N+](=O)[O-])c1.Cl (stereo not drawn) [NCGC00167492-03] | > 10 | > 10 | –
COC(=O)C1=C(C)NC(C)=C(C(=O)OCCN2CCN(C(c3ccccc3)c3ccccc3)CC2)C1c1cccc([N+](=O)[O-])c1 (stereo not drawn) [NCGC00167493-04] | – | – | IC50/EC50, VEGF_ADSC\ECFC Angio Hoechst NucArea (assay number 3) [1]: > 10 µM; IC50/EC50, VEGF_ADSC\ECFC Angio CD31 TubeArea (assay number 2) [2]: > 10 µM
CS(=O)(=O)CCNCc1ccc(-c2ccc3ncnc(Nc4ccc(OCc5cccc(F)c5)c(Cl)c4)c3c2)o1 [NCGC00167507-04] | > 10 | > 10 | –
CC[C@]1(O)CC[C@H]2[C@@H]3CCC4=CCCC[C@@H]4[C@H]3CC[C@@]21C [NCGC00167514-02] | > 10 | 6.2451 | –

Structure (SMILES) | VEGF_ADSC\ECFC Angio Hoechst NucArea IC50/EC50 [1] [µM] | VEGF_ADSC\ECFC Angio CD31 TubeArea IC50/EC50 [2] [µM] | further results
CCCCCCCCCCCCCCCCCCCCCC(=O)Nc1ccn([C@@H]2O[C@H](CO)[C@@H](O)[C@@H]2O)c(=O)n1 [NCGC00167515-02] | > 10 | > 10 | –
Cc1c(C)c2c(c(C)c1OC(=O)CCC(=O)O)CC[C@@](C)(CCC[C@H](C)CCC[C@H](C)CCCC(C)C)O2 [NCGC00167561-03] | – | – | pIC50 [1]: < 5.00; pIC50 [2]: < 5.00
O=C1OC(OC(=O)c2cccnc2Nc2cccc(C(F)(F)F)c2)c2ccccc21 (stereo not drawn) [NCGC00167754-02] | > 10 | > 10 | –
COc1ccccc1OCCNCC(O)COc1cccc2[nH]c3ccccc3c12 (stereo not drawn) [NCGC00167832-06] | > 10 | > 10 | –
CCCCN(CCCC)CCC(O)c1cc2c(Cl)cc(Cl)cc2c2cc(C(F)(F)F)ccc12 (stereo not drawn) [NCGC00179250-03] | > 10 | > 10 | –
CC(=O)C[C@H]1[C@H](O[C@H]2[C@H](OC(C)C(=O)N[C@@H](C)C(=O)N[C@H](CCC(=O)N[C@@H](CCCCN)C(=O)N[C@H](C)C(=O)O)C(N)=O)[C@@H](NC(=O)O)C(O)O[C@@H]2CO)O[C@H](CO)[C@@H](O)[C@@H]1O (stereo partly drawn) [NCGC00181761-01] | > 10 | > 10 | –
Cc1ccc(Nc2c(F)cccc2Cl)c(CC(=O)O)c1 [NCGC00181795-02] | > 10 | > 10 | –
CN(C)CCOC1=Cc2ccccc2Sc2ccc(Cl)cc21 [NCGC00182081-04] | > 10 | > 10 | –
COC(=O)N[C@H](C(=O)N[C@@H](Cc1ccccc1)[C@@H](O)CN(Cc1ccc(-c2ccccn2)cc1)NC(=O)[C@@H](NC(=O)OC)C(C)(C)C)C(C)(C)C [NCGC00182552-02] | > 10 | > 10 | –
O=C1CC[C@H](C(=O)N2CCCCC2)N1 [NCGC00182992-01] | > 10 | > 10 | –
CC(=O)c1ccc(OCC(=O)N2CCCCC2)cc1 [NCGC00183022-01] | > 10 | > 10 | –
CCOC(=O)NC(C)(C)Cc1ccc(Cl)cc1 [NCGC00183835-01] | – | – | pIC50 [1]: < 5.00; pIC50 [2]: < 5.00
O=C1NC2CCCCN2C12CCN(CCCN1c3ccccc3CCc3ccc(Cl)cc31)CC2 (stereo not drawn) [NCGC00183853-01] | > 10 | > 10 | –
CCCCc1oc2ccc(NS(C)(=O)=O)cc2c1C(=O)c1ccc(OCCCN(CCCC)CCCC)cc1 [NCGC00188863-02] | 7.561 | 2.754 | –
CCN[C@@H](C)Cc1cccc(C(F)(F)F)c1 [NCGC00247710-02] | > 10 | > 10 | –
Cc1[nH]cnc1C[C@H]1CCc2c(C)c3ccccc3n2C1=O [NCGC00249415-01] | > 10 | > 10 | –

— publication PMC4503722, “Novel Phenotypic Outcomes Identified for a Public Collection of Approved Drugs from a Publicly Accessible Panel of Assays” (PLoS ONE, 2015)
